{"source": "patent US11506670B2", "about": "“Method of genome-wide direct identification of electrophile-sensing targets” (Cornell University, priority 2018, dated 2022)", "key": {"γ-H2AX": {"system": "γ-H2AX", "assay": "γ-H2AX immunofluorescence in HEK293T cells", "assay_type": "cell-based, human", "description": "Cells were grown to 70% confluence in 35 mm glass-bottomed dishes and transfected with HaloTagged plasmids. T-REX™ delivery was performed as mentioned above. […] The fixative was aspirated and the cells washed three times with 1×DPBS with 5-min incubation at room temperature. Blocking and permeabilization was performed in one-step by incubation at 37° C. for 1 h in 1×DPBS containing 3% BSA and 0.2% Triton X-100. Cells were subsequently incubated with primary antibody (1:300, Table 4) in incubation buffer (1% BSA, 0.02% Triton X-100 in 1×DPBS) for 2 h at room temperature. Cells were rinsed 3 times with 1×DPBS with 5 min incubation for each wash and subsequently incubated in dark for 1 h at room temperature with corresponding second antibody (1:1000, Table 4) in incubation buffer. Cells were rinsed 3 times with 1×DPBS with 5 min incubation for each rinse. DAPI (Sigma) was freshly prepared in 1×DPBS from 2 mg/mL wt./v stock solution in water and added to the wells at the final concentration of 0.2 μg/mL. The samples were incubated in dark for 1 min and washed once with 1×DPBS and stored at 4° C. in dark till images were taken using a Zeiss LSM 710 meta confocal fluorescence microscope. Image analysis was performed using Image-J (NIH)."}, "[1]": {"system": "HaloTag-fused proteins of interest (POI)", "assay": "T-REX targeting efficiency by Click coupling, in-gel fluorescence", "assay_type": "cell-based", "conditions": "equation of Step 40A (ix)", "description": "(i) For mammalian cells, add 15 μL freshly prepared lysis buffer (50 mM Hepes pH 7.6, 0.3 mM TCEP and 1% Nonidet p-40) to mammalian cell pellets from Step 2A above and subject to 3 cycles of freeze-thaw. For E. coli cells, resuspend cell pellet in 100 μL lysis buffer consisting of 50 mM HEPES pH 7.6, 2 mM TCEP, 1% Nonidet p-40, 150 μg/mL Lysozyme, 5 μg/mL DNAse-I. Incubate for 20 min at room temperature with agitation. For mammalian cells make sure the cells are resuspended well in lysis buffer.\n(iv) Dilute a portion of the clarified lysate to 1 mg/mL in a final volume of ˜25 μL containing 50 mM Hepes pH 7.6, 0.3 mM TCEP, and 0.2 mg/mL His6-TEV-S219V. Incubate at 37° C. for 45 min. The optimal concentration of lysate protein is ˜1.0 mg/mL. High concentration of lysate protein causes failure of Click coupling. Precipitates may appear upon adding His6-TEV-S219V. […]\n(vii) Upon completion of the gel-electrophoresis, rinse the gel with ddH2O 20 mL (×2, 5 min) and analyze for Cy5 signal using a ChemiDoc-MP imaging system (Bio-Rad) (see Equipment Setup). Any alternative fluorescence gel imager platforms can be used in this step. […]\n(x) Bio-Rad Image Lab™ software is used to quantitate the intensities of Cy5 signal and western blot signal. […] Click on “Analysis table” to generate the quantitated signal intensities corresponding to selected bands. […]"}}, "data": [{"smiles": "CCCCCC(O)/C=C/C=O", "note": "(stereo not shown) [HNE, 4-hydroxynonenal]", "values": [{"measurement": "γ-H2AX upregulation in Ube2V2-C69S-expressing cells", "setting": "γ-H2AX; T-REX, over 18-h time course", "result": "no significant γ-H2AX upregulation"}, {"measurement": "time post light exposure up to which increased γ-H2AX could be measured", "setting": "γ-H2AX; basal after 24 h", "result": "up to 18 h"}, {"measurement": "increase in cellular γ-H2AX following Ube2V2(C69)-targeted-HNEylation", "setting": "γ-H2AX; wt-Halo-Ube2V2, T-REX", "result": "approximately two-fold"}, {"measurement": "targeting efficiency", "setting": "[1]", "result": "10-40%"}]}]}
